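How tested: cells in 96-well plates exposed to compound for 48 hours at five concentrations. GI50: concentration for 50% inhibition of growth.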 Calls of active or inactive are those of the source. No stated cut-off is given here; in the data, active = GI50 up to about 1.1 µM and inactive = higher.
Columns and labels:
Experiment in all cases: inhibition of tumour cell growth, NCI panel, 48 h
HCT-15 = test system: HCT-15
SF-539 = test system: SF-539
SW-620 = test system: SW-620
Malme-3M = test system: Malme-3M
OVCAR-3 = test system: OVCAR-3
COLO 205 = test system: COLO 205
SR = test system: SR
CAKI-1 = test system: CAKI-1
HCT-116 = test system: HCT-116
A498 = test system: A498
SNB-19 = test system: SNB-19
DU-145 = test system: DU-145
HOP-92 = test system: HOP-92
M14 = test system: M14
CCRF-CEM = test system: CCRF-CEM
MDA-MB-435 = test system: MDA-MB-435
HCC 2998 = test system: HCC 2998
RXF 393 = test system: RXF 393
UACC-62 = test system: UACC-62
K562 = test system: K562
SNB-75 = test system: SNB-75
HT-29 = test system: HT-29
OVCAR-4 = test system: OVCAR-4
TK-10 = test system: TK-10
SF-268 = test system: SF-268
NCI-H522 = test system: NCI-H522
IGROV-1 = test system: IGROV-1
EKVX = test system: EKVX
A549 = test system: A549
U-251 = test system: U-251
LOX IMVI = test system: LOX IMVI
OVCAR-5 = test system: OVCAR-5
Hs-578T = test system: Hs-578T
HL-60 = test system: HL-60
PC-3 = test system: PC-3
MDA-N = test system: MDA-N
MDA-MB-231 = test system: MDA-MB-231
SK-MEL-5 = test system: SK-MEL-5
SF-295 = test system: SF-295
SK-MEL-28 = test system: SK-MEL-28
NCI-H460 = test system: NCI-H460
SN12C = test system: SN12C
MCF7 = test system: MCF7
MOLT-4 = test system: MOLT-4
UACC-257 = test system: UACC-257
KM12 = test system: KM12
786-0 = test system: 786-0
OVCAR-8 = test system: OVCAR-8
RPMI-8226 = test system: RPMI-8226
SK-OV-3 = test system: SK-OV-3
ACHN = test system: ACHN
SK-MEL-2 = test system: SK-MEL-2
NCI-H226 = test system: NCI-H226
BT-549 = test system: BT-549
NCI-H23 = test system: NCI-H23
HOP-62 = test system: HOP-62
NCI/ADR-RES = test system: NCI/ADR-RES
UO-31 = test system: UO-31
T47D = test system: T47D

CN(C)CCCNc1cnc2cc3ccccc3cc2n1
GI50 (HCT-15): 18.4 µM
GI50 (SF-539): 23.5 µM (inactive)
GI50 (SW-620): 37.4 µM (inactive)
GI50 (Malme-3M): 14.1 µM (inactive)
GI50 (OVCAR-3): 17.6 µM (inactive)
GI50 (COLO 205): 18.3 µM (inactive)
GI50 (SR): 61.1 µM (inactive)
GI50 (CAKI-1): 22.4 µM (inactive)
GI50 (HCT-116): 32.8 µM (inactive)
GI50 (A498): 17.5 µM (inactive)
GI50 (SNB-19): 36.1 µM (inactive)
GI50 (DU-145): 41 µM (inactive)
GI50 (HOP-92): 23.5 µM (inactive)
GI50 (M14): 21.4 µM (inactive)
GI50 (CCRF-CEM): 42 µM (inactive)
GI50 (MDA-MB-435): 24.5 µM (inactive)
GI50 (HCC 2998): 17.2 µM (inactive)
GI50 (RXF 393): 21.6 µM (inactive)
GI50 (UACC-62): 15.6 µM (inactive)
GI50 (K562): 25.4 µM (inactive)
GI50 (SNB-75): 23.7 µM (inactive)
GI50 (HT-29): 15 µM (inactive)
GI50 (OVCAR-4): 23.8 µM (inactive)
GI50 (TK-10): 27 µM (inactive)
GI50 (SF-268): 23.8 µM (inactive)
GI50 (NCI-H522): 19.8 µM (inactive)
GI50 (IGROV-1): 13.9 µM (inactive)
GI50 (EKVX): 28 µM (inactive)
GI50 (A549): 26 µM (inactive)
GI50 (U-251): 36.5 µM (inactive)
GI50 (LOX IMVI): 14.3 µM (inactive)
GI50 (OVCAR-5): 18.6 µM (inactive)
GI50 (Hs-578T): 32.1 µM (inactive)
GI50 (HL-60): 32.2 µM (inactive)
GI50 (PC-3): 15.4 µM (inactive)
GI50 (MDA-N): 32.8 µM (inactive)
GI50 (MDA-MB-231): 16.4 µM (inactive)
GI50 (SK-MEL-5): 19.6 µM (inactive)
GI50 (SF-295): 20.7 µM (inactive)
GI50 (SK-MEL-28): 22.6 µM (inactive)
GI50 (NCI-H460): 33.3 µM (inactive)
GI50 (SN12C): 33.1 µM (inactive)
GI50 (MCF7): 21.3 µM (inactive)
GI50 (MOLT-4): 28.4 µM (inactive)
GI50 (UACC-257): 19.2 µM (inactive)
GI50 (KM12): 20 µM (inactive)
GI50 (786-0): 31 µM (inactive)
GI50 (OVCAR-8): 19.6 µM (inactive)
GI50 (RPMI-8226): 33.3 µM (inactive)
GI50 (SK-OV-3): 55.1 µM (inactive)
GI50 (ACHN): 31.2 µM (inactive)
GI50 (SK-MEL-2): 19.5 µM (inactive)
GI50 (NCI-H226): 16.8 µM (inactive)
GI50 (BT-549): 15.3 µM (inactive)
GI50 (NCI-H23): 25.1 µM (inactive)
GI50 (HOP-62): 26.2 µM (inactive)

CC(=O)NC1CC(C(C)(C)NC(C)=O)CC=C1C (centres undefined)
GI50 (HCT-15): > 100 µM
GI50 (SF-539): > 100 µM (inactive)
GI50 (SW-620): > 100 µM (inactive)
GI50 (OVCAR-3): > 100 µM (inactive)
GI50 (NCI/ADR-RES): > 100 µM (inactive)
GI50 (COLO 205): > 100 µM (inactive)
GI50 (SR): > 100 µM (inactive)
GI50 (HCT-116): > 100 µM (inactive)
GI50 (SNB-19): > 100 µM (inactive)
GI50 (DU-145): > 100 µM (inactive)
GI50 (HOP-92): > 100 µM (inactive)
GI50 (M14): > 100 µM (inactive)
GI50 (CCRF-CEM): > 100 µM (inactive)
GI50 (MDA-MB-435): > 100 µM (inactive)
GI50 (HCC 2998): > 100 µM (inactive)
GI50 (UACC-62): > 100 µM (inactive)
GI50 (UO-31): > 100 µM (inactive)
GI50 (K562): > 100 µM (inactive)
GI50 (SNB-75): > 100 µM (inactive)
GI50 (HT-29): > 100 µM (inactive)
GI50 (OVCAR-4): > 100 µM (inactive)
GI50 (TK-10): > 100 µM (inactive)
GI50 (SF-268): > 100 µM (inactive)
GI50 (NCI-H522): > 100 µM (inactive)
GI50 (IGROV-1): > 100 µM (inactive)
GI50 (EKVX): > 100 µM (inactive)
GI50 (A549): > 100 µM (inactive)
GI50 (U-251): > 100 µM (inactive)
GI50 (LOX IMVI): > 100 µM (inactive)
GI50 (T47D): > 100 µM (inactive)
GI50 (OVCAR-5): > 100 µM (inactive)
GI50 (HL-60): > 100 µM (inactive)
GI50 (PC-3): > 100 µM (inactive)
GI50 (MDA-N): > 100 µM (inactive)
GI50 (MDA-MB-231): > 100 µM (inactive)
GI50 (SK-MEL-5): > 100 µM (inactive)
GI50 (SF-295): > 100 µM (inactive)
GI50 (SK-MEL-28): > 100 µM (inactive)
GI50 (NCI-H460): > 100 µM (inactive)
GI50 (SN12C): > 100 µM (inactive)
GI50 (MCF7): > 100 µM (inactive)
GI50 (MOLT-4): > 100 µM (inactive)
GI50 (UACC-257): > 100 µM (inactive)
GI50 (KM12): > 100 µM (inactive)
GI50 (786-0): > 100 µM (inactive)
GI50 (OVCAR-8): > 100 µM (inactive)
GI50 (SK-OV-3): > 100 µM (inactive)
GI50 (BT-549): > 100 µM (inactive)
GI50 (NCI-H23): > 100 µM (inactive)
GI50 (HOP-62): > 100 µM (inactive)

CC(=O)C1C(=O)C(=O)N(c2ccc(Br)cc2)C1=O (centres undefined)
GI50 (HCT-15): > 100 µM
GI50 (SF-539): > 100 µM (inactive)
GI50 (SW-620): > 100 µM (inactive)
GI50 (OVCAR-3): > 100 µM (inactive)
GI50 (NCI/ADR-RES): > 100 µM (inactive)
GI50 (COLO 205): > 100 µM (inactive)
GI50 (CAKI-1): > 100 µM (inactive)
GI50 (HCT-116): > 100 µM (inactive)
GI50 (SNB-19): > 100 µM (inactive)
GI50 (DU-145): > 100 µM (inactive)
GI50 (HOP-92): > 100 µM (inactive)
GI50 (M14): > 100 µM (inactive)
GI50 (CCRF-CEM): > 100 µM (inactive)
GI50 (MDA-MB-435): > 100 µM (inactive)
GI50 (HCC 2998): > 100 µM (inactive)
GI50 (RXF 393): > 100 µM (inactive)
GI50 (UACC-62): > 100 µM (inactive)
GI50 (UO-31): > 100 µM (inactive)
GI50 (SNB-75): > 100 µM (inactive)
GI50 (HT-29): > 100 µM (inactive)
GI50 (OVCAR-4): > 100 µM (inactive)
GI50 (TK-10): > 100 µM (inactive)
GI50 (SF-268): > 100 µM (inactive)
GI50 (NCI-H522): > 100 µM (inactive)
GI50 (IGROV-1): > 100 µM (inactive)
GI50 (EKVX): > 100 µM (inactive)
GI50 (A549): > 100 µM (inactive)
GI50 (U-251): > 100 µM (inactive)
GI50 (LOX IMVI): > 100 µM (inactive)
GI50 (OVCAR-5): > 100 µM (inactive)
GI50 (Hs-578T): > 100 µM (inactive)
GI50 (HL-60): > 100 µM (inactive)
GI50 (PC-3): > 100 µM (inactive)
GI50 (MDA-N): > 100 µM (inactive)
GI50 (MDA-MB-231): > 100 µM (inactive)
GI50 (SK-MEL-5): > 100 µM (inactive)
GI50 (SF-295): > 100 µM (inactive)
GI50 (SK-MEL-28): > 100 µM (inactive)
GI50 (NCI-H460): > 100 µM (inactive)
GI50 (SN12C): > 100 µM (inactive)
GI50 (MCF7): > 100 µM (inactive)
GI50 (MOLT-4): > 100 µM (inactive)
GI50 (UACC-257): > 100 µM (inactive)
GI50 (KM12): > 100 µM (inactive)
GI50 (786-0): > 100 µM (inactive)
GI50 (OVCAR-8): > 100 µM (inactive)
GI50 (SK-OV-3): > 100 µM (inactive)
GI50 (ACHN): > 100 µM (inactive)
GI50 (SK-MEL-2): > 100 µM (inactive)
GI50 (NCI-H226): > 100 µM (inactive)
GI50 (BT-549): > 100 µM (inactive)
GI50 (NCI-H23): > 100 µM (inactive)
GI50 (HOP-62): > 100 µM (inactive)

From ChEMBL document CHEMBL1201862, “PubChem BioAssay data set” (2004)
